Source: PMC10053621 (Pharmaceutics, 2023)
Like-named read-outs stand apart in the source and are kept apart here.

How the values were obtained:
[1] = tested on: Escherichia coli (E. coli) DH5α, kanamycin-resistant; assay: Bacterial growth assay (turbidity, OD600); format: cell-based; details: 100 µg/mL, 1-8 h
Experimental: (§1) The antibacterial effect of FKFL-G2 was evaluated using Escherichia coli (E. coli) DH5α, which is kanamycin-resistant, and Staphylococcus aureus (S. aureus). Bacterial growth was estimated based on turbidity measurements, a commonly used method of evaluating the density of bacteria grown on a solution medium. In this process, E. coli and S. aureus bacteria were thawed, cultured overnight, and subcultured. […] The optical density (OD) of each sample was measured at a wavelength of 600 nm using an ultraviolet–visible spectrophotometer (OPTIZEN QX, Optizen, Daejeon, Republic of Korea).

[2] = tested on: Staphylococcus aureus (S. aureus); assay: Bacterial growth assay (turbidity, OD600); format: cell-based; details: 100 µg/mL, 1-8 h
Experimental: as §1

E. coli [3] = assay: Biofilm formation assay (crystal violet); format: cell-based, Escherichia coli; details: 8 h at 37 °C, absorbance at 550 nm, n = 4
Experimental: E. coli cells were thawed, cultured overnight, and then subcultured. […] To prevent subsequent background staining, the culture medium was removed and washed three times with distilled water. Then, 125 μL of crystal violet solution (0.1%, w/v) was added to the cells, which were incubated for another 10 min. Thereafter, the solution was removed, and the cells were washed with water and dried overnight. Lastly, 125 µL of a 30% acetic acid solution was added to the cells, which were incubated for 10 min to dissolve the film. The absorbance of the cells was then measured using a microplate reader (VERSAmax, Molecular Devices, Sunnyvale, CA, USA) at a wavelength of 550 nm.

E. coli [4] = assay: Membrane permeabilization assay (NPN); format: cell-based, Escherichia coli; details: 100 µL of 1 mg/mL in 1 mL, 30 min, HEPES pH 7.8, ex 350 / em 429 nm, n = 3
Experimental: (§2) To evaluate the ability of FKFL-G2 to disrupt bacterial cell membranes, the membrane permeabilization assay was performed using N-phenyl-1-naphthylamine (NPN). E. coli and S. aureus bacteria were thawed and cultured overnight at 37 °C while being shaken at 180 rpm. After the absorbance of the bacterial solutions reached an OD600 of 1.0, the bacterial cells were harvested via centrifugation at 3500 rpm for 10 min. The bacterial pellet was washed twice with 4-(2-hydroxyethyl)-1-piperazineethanesulfonic acid (HEPES) buffer (pH 7.8). The bacterial pellets were then subjected to another round of centrifugation at 3500 rpm for 10 min and resuspended in 1 mL of HEPES (pH 7.8) to make bacterial solutions. […] Triton X-100, a well-known surfactant with a high capacity to destroy cell membranes, was used as a control. The fluorescence of each solution was measured using a fluorometer (LS45 Fluorescence Spectrometer, PerkinElmer, Waltham, MA, USA) at an excitation wavelength of 350 nm and emission wavelength of 429 nm.

S. aureus [5] = assay: Membrane permeabilization assay (NPN); format: cell-based, Staphylococcus aureus; details: 100 µL of 1 mg/mL in 1 mL, 30 min, HEPES pH 7.8, ex 350 / em 429 nm, n = 3
Experimental: as §2

NIH3T3 cells = tested on: NIH3T3 cells
Experimental: NIH3T3 cells were used to evaluate the cytotoxicity of the FKFL-G2 dendrimer. A total of 1.8 × 10^4 cells/well were seeded in a 96-well plate and incubated in 90 µL of Dulbecco’s modified Eagle’s medium, containing 10% (v/v) fetal bovine serum and 1% (w/v) penicillin/streptomycin, for 16 h at 37 °C in a humidified atmosphere containing 5% CO2. […] Each sample in the experimental group was treated with 10 µL of the FKFL-G2 dendrimer at the following concentrations: 12.5, 25, 50, 100, and 200 µg/mL. After 24 h of incubation, 10 µL of EZ-Cytox reagent (WST-8) was added to each well (except for that used as the negative control), which were incubated for a subsequent 2 h. Lastly, the absorbance of the wells measured a data wavelength of 450 nm via a colorimetric enzyme-linked immunosorbent assay (VERSAmax, Molecular Devices, Sunnyvale, CA, USA).

S. aureus [6] = assay: Colony-forming unit assay; format: cell-based, Staphylococcus aureus; details: 100 µg/mL, 24 h growth on agar plate, n = 3
Experimental: (§3) A colony-forming unit assay was performed to determine the effect of FKFL-G2 on bacterial colony formation. This process followed the same steps as the turbidity test in Section 2.5. The OD of the cells was measured after 24 h of growth. The cell solution was diluted by a factor of 10^7; after which, 100 µL of the diluted solution was sprayed onto an agar plate and incubated in a shaking incubator for 24 h at 37 °C. The number of colonies produced was then observed.

[7] = Critical aggregation concentration (CAC), Nile red fluorescence; format: physicochemical; details: ex 550 nm, intensity at 650 nm, FKFL-G2 0.001 to 0.9 mg/mL
Experimental: In order to confirm whether FKFL-G2 forms an aggregate by itself, the CAC was measured by fluorescence spectroscopy using Nile red. A 1 mL solution of FKFL-G2 with a concentration range of 0.001 to 0.9 mg/mL was combined with 5 µL of Nile red (1 mM in MeOH) and mixed by vortexing. Subsequently, fluorescence was measured at wavelengths of 550 nm for excitation and 560–760 nm for emission using a fluorometer (LS45, Fluorescence Spectrometer, PerkinElmer), and the fluorescence intensity at 650 nm was analyzed to measure the values of the nanoparticles.

E. coli [8] = assay: Colony-forming unit assay; format: cell-based, Escherichia coli; details: 100 µg/mL, 24 h growth on agar plate, n = 3
Experimental: as §3

E. coli [9] = assay: Scanning electron microscopy of treated bacteria; format: cell-based, Escherichia coli; details: 8 h at 37 °C
Experimental: (§4) Bacterial morphology with untreated or Amp, Kan, G2, and FKFL-G2-treated was observed using field emission scanning electron microscopy (FE-SEM; S-4800, Hitachi, Tokyo, Japan). E. coli and S. aureus bacteria were cultured and incubated with experimental and control samples for 8 h at 37 °C while being shaken at 225 rpm. Thereafter, 50 µL of the bacterial solution of each culture was placed on a silicon wafer and dried at room temperature. The bacteria-containing wafers were placed on a 24-well plate and treated with 4% paraformaldehyde for 30 min. The surfaces were then washed using various concentrations of ethanol solution 0%, 25%, 50%, 75%, and 99.9%. The washed wafers were coated with platinum for 90 s; after which, and the appearance of bacteria was observed using FE-SEM (S-4800, Hitachi, Tokyo, Japan). The shapes of treated bacterial cells were compared with those of nontreated corresponding bacterial cells.

S. aureus [10] = assay: Scanning electron microscopy of treated bacteria; format: cell-based, Staphylococcus aureus; details: 8 h at 37 °C
Experimental: as §4

[11] = Zeta potential and mean diameter (Zetasizer Nano ZS, DLS); format: physicochemical; details: for Diameter / Polydispersity (PDI): DLS at RT, repeated three times; for Zeta Potential: room temperature, triplicate
Experimental: The surface charge and the mean diameter of the FKFL-G2 were measured in triplicate and evaluated at various concentrations at room temperature using a Zetasizer Nano ZS (Malvern Panalytical, Malvern, UK).

For `NC[C@H]1O[C@H](O[C@H]2[C@H](O)[C@@H](O[C@H]3O[C@H](CO)[C@@H](O)[C@H](N)[C@H]3O)[C@H](N)C[C@@H]2N)[C@H](O)[C@@H](O)[C@@H]1O` [kanamycin, Kanamycin], which “bacterial growth, OD600 over time (in words)” value [1] is on record?
The value was “grew well”.

And the “bacterial growth, OD600 over time (in words)” value [2]?
The value was “remained stable”.

And the “biofilm formation inhibition rate” value (E. coli [3])?
The value was 75%.

What about the “membrane permeabilization, NPN fluorescence (in words)” value (shortened to “membrane permeabilization”) (E. coli [4]) of the same compound?
Its value is “did not show any membrane perturbation effect”.

What about the “membrane permeabilization” value (S. aureus [5]) of the same compound?
Its value is “did not show any membrane perturbation effect”.

For “phenylalanine (F)-lysine (K)-phenylalanine (F)-Leucine (L)-polyamidoamine generation 2 (PAMAM G2) [FKFL-G2]”, which cell viability (NIH3T3 cells; 8.46 µM) is on record?
Its cell viability is “about 83%”.

And the cell viability (NIH3T3 cells; 16.9 µM)?
Its cell viability is ~48%.

What about the “bacterial growth, OD600 over time (in words)” value [2] of the same compound?
The value was “decreased over time”.

What about the “colony formation (in words)” value (S. aureus [6]) of the same compound?
Its value is “strong antibacterial effect”.

And the “Critical aggregation concentration (CAC)” value [7]?
The value was 31.03 µM.

And the “biofilm formation inhibition rate” value (E. coli [3])?
Its value is “approximately 98%”.

And the “membrane permeabilization” value (E. coli [4])?
Its value is “higher fluorescence than PAMAM G2”.

What about the “colony formation (in words)” value (E. coli [8]) of the same compound?
Its value is “strong antibacterial effect”.

What about the “membrane permeabilization” value (S. aureus [5]) of the same compound?
Its value is “higher fluorescence than PAMAM G2”.

What about the “cell density in FE-SEM images (in words)” value (E. coli [9]) of the same compound?
Its value is “lowest”.

What about the “cell density in FE-SEM images (in words)” value (S. aureus [10]) of the same compound?
Its value is “lowest”.

What about the Diameter ([11]; concentration 42.3 µM) of the same compound?
The Diameter was 158.33 ± 12.59.

What about the “Polydispersity (PDI)” value ([11]; concentration 42.3 µM) of the same compound?
Its value is 0.628 ± 0.14.

What about the “Zeta Potential” value ([11]; concentration 42.3 µM) of the same compound?
Its value is 29.63 ± 6.51.

What about the Diameter ([11]; concentration 84.6 µM) of the same compound?
Its Diameter is 109.83 ± 17.54.

And the “Polydispersity (PDI)” value ([11]; concentration 84.6 µM)?
Its value is 0.459 ± 0.18.

And the “Zeta Potential” value ([11]; concentration 84.6 µM)?
The value was 35.5 ± 6.0.

What about the Diameter ([11]; concentration 169.2 µM) of the same compound?
The Diameter was 98.45 ± 6.95.

What about the “Polydispersity (PDI)” value ([11]; concentration 169.2 µM) of the same compound?
The value was 0.475 ± 0.03.

And the “Zeta Potential” value ([11]; concentration 169.2 µM)?
Its value is 38.23 ± 5.74.

With `CC1(C)S[C@@H]2[C@H](NC(=O)[C@H](N)c3ccccc3)C(=O)N2[C@H]1C(=O)O` [Ampicillin] as the compound, how does the “bacterial growth, OD600 over time (in words)” value [2] read?
Its value is “remained stable”.

What about the “biofilm formation inhibition rate” value (E. coli [3]) of the same compound?
The value was “approximately 98%”.
